According to PubChem BioAssay AID202 (DTP/NCI, 2004):
Several values for one entry are separate records, joined by “and”; a condition that tells them apart may be missing. Identical values can stand only once.

Tested on: HT29 xenograft, nude mice, s.c., tumor weight T/C%
Assay: NCI In Vivo Anticancer Drug Screen. Data for tumor model HT29;CX-1 Human Adenocarcinoma (MER+) (subcutaneous) in NU/NU Swiss (nude) mice
Settings: endpoint: optimum tumor weight change, higher = larger tumour
Description: The antitumor activity of compounds was measured in mice bearing transplantable tumors. Survival or tumor size were measured and the results are expressed as the measurement made in the treated group (T) divided by the measurement made in the vehicle treated control group (C). The tumor model used in this assay is HT29;CX-1 Human Adenocarcinoma (MER+) (subcutaneous) in NU/NU Swiss (nude) mice

[1] = dose: 3.75 mg/kg/injection, schedule: Q04DX003 (ip), vehicle: saline
[2] = dose: 200.0 mg/kg/injection, schedule: Q04DX003 (ip), vehicle: saline with Tween-80
[3] = dose: 400.0 mg/kg/injection, schedule: Q04DX003 (ip), vehicle: saline with Tween-80
[4] = dose: 100.0 mg/kg/injection, schedule: Q04DX003 (ip), vehicle: Klucel (hydroxypropylcellulose) (HPC)
[5] = dose: 200.0 mg/kg/injection, schedule: Q04DX003 (ip), vehicle: Klucel (hydroxypropylcellulose) (HPC)
[6] = dose: 4.0 mg/kg/injection, schedule: Q04DX003 (ip), vehicle: saline
[7] = dose: 7.5 mg/kg/injection, schedule: Q04DX003 (ip), vehicle: saline
[8] = dose: 8.0 mg/kg/injection, schedule: Q04DX003 (ip), vehicle: saline
[9] = dose: 15.0 mg/kg/injection, schedule: Q04DX004 (ip), vehicle: saline
[10] = dose: 16.0 mg/kg/injection, schedule: Q04DX003 (ip), vehicle: saline
[11] = dose: 100.0 mg/kg/injection, schedule: Q04DX003 (ip), vehicle: suspension in saline
[12] = dose: 200.0 mg/kg/injection, schedule: Q04DX003 (ip), vehicle: suspension in saline
[13] = dose: 400.0 mg/kg/injection, schedule: Q04DX003 (ip), vehicle: suspension in saline
[14] = dose: 150.0 mg/kg/injection, schedule: Q04DX003 (ip), vehicle: saline with Tween-80
[15] = dose: 25.0 mg/kg/injection, schedule: Q04DX003 (ip), vehicle: Klucel (hydroxypropylcellulose) (HPC)
[16] = dose: 50.0 mg/kg/injection, schedule: Q04DX003 (ip), vehicle: Klucel (hydroxypropylcellulose) (HPC)
[17] = dose: 50.0 mg/kg/injection, schedule: Q04DX003 (ip), vehicle: saline with Tween-80

NC(=O)c1ccc[n+](Cc2c(Cl)cccc2Cl)c1
T/C (dose: 48.0 mg/kg/injection, schedule: Q04DX003 (ip), vehicle: saline): 122 % of control

Cc1c(N)nc(C(CC(N)=O)NCC(N)C(N)=O)nc1C(=O)NC(C(=O)NC(C)C(O)C(C)C(=O)NC(C(=O)NCCc1nc(-c2nc(C(=O)NCCCNC(C)c3ccccc3)cs2)cs1)C(C)O)C(OC1OC(CO)C(O)C(O)C1OC1OC(CO)C(O)C(OC(N)=O)C1O)c1cnc[nH]1 (stereo unspecified)
T/C [1]: 70 % of control

CC(=O)Oc1ccc[nH]c1=O
T/C [2]: 96 % of control | T/C [3]: 111 % of control

O=c1[nH]cnc2n[nH]nc12
T/C [4]: 67 % of control | T/C [5]: 67 % of control | T/C (dose: 400.0 mg/kg/injection, schedule: Q04DX003 (ip), vehicle: Klucel (hydroxypropylcellulose) (HPC)): 31 % of control

N/C(=N\O)c1cn(C2OC(CO)C(O)C2O)c2ncnc(N)c12 (stereo unspecified)
T/C (dose: 5.0 mg/kg/injection, schedule: Q04DX003 (ip), vehicle: Klucel (hydroxypropylcellulose) (HPC)): 91 % of control | T/C (dose: 10.0 mg/kg/injection, schedule: Q04DX003 (ip), vehicle: Klucel (hydroxypropylcellulose) (HPC)): 63 % of control | T/C (dose: 20.0 mg/kg/injection, schedule: Q04DX003 (ip), vehicle: Klucel (hydroxypropylcellulose) (HPC)): 47 % of control

C[n+]1c(-c2cccc3ccccc23)c2cc(N)ccc2c2ccccc21
T/C (dose: 1.5 mg/kg/injection, schedule: Q04DX003 (ip), vehicle: saline): 86 % of control

Cc1c(N)nc([C@H](CC(N)=O)NC[C@H](N)C(N)=O)nc1C(=O)N[C@H](C(=O)N[C@H](C)[C@@H](O)[C@H](C)C(=O)N[C@H](C(=O)NCCc1nc(-c2nc(C(=O)NCCC[S+](C)C)cs2)cs1)[C@@H](C)O)C(OC1OC(CO)C(O)C(O)C1OC1OC(CO)C(O)C(OC(N)=O)C1O)c1cnc[nH]1 (stereo partly specified)
T/C [1]: 71 % of control | T/C [6]: 64 % of control | T/C [7]: 50 % of control and 70 % of control | T/C (dose: 7.5 mg/kg/injection, schedule: Q04DX004 (ip), vehicle: saline): 37 % of control | T/C [8]: 49 % of control | T/C [9]: 26 % of control | T/C [10]: 28 % of control and 33 % of control | T/C (dose: 32.0 mg/kg/injection, schedule: Q04DX003 (ip), vehicle: saline): 11 % of control

O=C(NC1CCCCC1)OCc1c(COC(=O)NC2CCCCC2)c(-c2ccc(Cl)c(Cl)c2)n2c1CCC2
T/C [11]: 96 % of control | T/C [12]: 90 % of control | T/C [13]: 92 % of control | T/C (dose: 800.0 mg/kg/injection, schedule: Q04DX003 (ip), vehicle: suspension in saline): 65 % of control

CN1N=C(N)c2cn(C3OC(COP(=O)(O)O)C(O)C3O)c3ncnc1c23 (stereo unspecified)
T/C (dose: 50.0 mg/kg/injection, schedule: Q04DX003 (ip), vehicle: water): 121 % of control

Nc1ccc(Cl)cc1N
T/C [3]: 87 % of control | T/C (dose: 800.0 mg/kg/injection, schedule: Q04DX003 (ip), vehicle: saline with Tween-80): 98 % of control

C[C@]12CC[C@@H]3c4ccc(OC(=O)Cc5ccc(N(CCCl)CCCl)cc5)cc4CC[C@H]3[C@@H]1CC[C@@H]2OC(=O)Cc1ccc(N(CCCl)CCCl)cc1
T/C [14]: 60 % of control | T/C (dose: 1200.0 mg/kg/injection, schedule: Q04DX003 (ip), vehicle: saline with Tween-80): 53 % of control and 66 % of control

NC(=S)N/N=C/c1ccc(O)cn1
T/C [14]: 63 % of control | T/C (dose: 300.0 mg/kg/injection, schedule: Q04DX003 (ip), vehicle: saline with Tween-80): 70 % of control | T/C (dose: 600.0 mg/kg/injection, schedule: Q04DX003 (ip), vehicle: saline with Tween-80): 87 % of control

C=CC(=O)NCNC(=O)C=C
T/C (dose: 50.0 mg/kg/injection, schedule: Q04DX003 (ip), vehicle: saline): 78 % of control | T/C (dose: 100.0 mg/kg/injection, schedule: Q04DX003 (ip), vehicle: saline): 65 % of control | T/C (dose: 200.0 mg/kg/injection, schedule: Q04DX003 (ip), vehicle: saline): 60 % of control

CCCCNCCCNCCCNC(=O)c1csc(-c2csc(CCNC(=O)C(NC(=O)C(C)C(O)C(C)NC(=O)C(NC(=O)c3nc(C(CC(N)=O)NCC(N)C(N)=O)nc(N)c3C)C(OC3OC(CO)C(O)C(O)C3OC3OC(CO)C(O)C(OC(N)=O)C3O)c3cnc[nH]3)C(C)O)n2)n1 (stereo unspecified)
T/C [7]: 75 % of control | T/C (dose: 15.0 mg/kg/injection, schedule: Q04DX003 (ip), vehicle: saline): 28 % of control | T/C [9]: 40 % of control | T/C (dose: 30.0 mg/kg/injection, schedule: Q04DX003 (ip), vehicle: saline): 19 % of control and 33 % of control | T/C (dose: 30.0 mg/kg/injection, schedule: Q04DX004 (ip), vehicle: saline): 38 % of control | T/C (dose: 60.0 mg/kg/injection, schedule: Q04DX003 (ip), vehicle: saline): 20 % of control | T/C (dose: 60.0 mg/kg/injection, schedule: Q04DX004 (ip), vehicle: saline): 18 % of control | T/C (dose: 120.0 mg/kg/injection, schedule: Q04DX003 (ip), vehicle: saline): 2 % of control

COc1cccc2c1C(=O)c1c(O)c3c(c(O)c1C2=O)C[C@@](O)(C(C)=O)C[C@@H]3OC1CC(N)C(O)C(C)O1 (stereo partly specified)
T/C (dose: 1.0 mg/kg/injection, schedule: Q04DX003 (ip), vehicle: saline): 71 % of control | T/C (dose: 2.0 mg/kg/injection, schedule: Q04DX003 (ip), vehicle: saline): 113 % of control

C=CC(=O)N1CN(C(=O)C=C)CN(C(=O)C=C)C1
T/C (dose: 3.13 mg/kg/injection, schedule: Q01DX003 (ip), vehicle: saline with Tween-80): 62 % of control | T/C (dose: 6.25 mg/kg/injection, schedule: Q01DX003 (ip), vehicle: saline with Tween-80): 93 % of control

CCc1ccccc1N1CCN(C(=O)c2cc(OC)c(OC)c(OC)c2)CC1
T/C [15]: 108 % of control | T/C [16]: 63 % of control | T/C [4]: 75 % of control | T/C [5]: 82 % of control

O=S(CCCl)CCCl
T/C [15]: 72 % of control | T/C [16]: 51 % of control | T/C [4]: 65 % of control

C1CCC2[N-]CC3CCCCC3[N-]CC3CCCCC3[N-]CC3CCCCC3[N-]CC2C1.[Cu] (stereo unspecified)
T/C (dose: 3.13 mg/kg/injection, schedule: Q04DX003 (ip), vehicle: Klucel (hydroxypropylcellulose) (HPC)): 62 % of control | T/C (dose: 6.25 mg/kg/injection, schedule: Q04DX003 (ip), vehicle: Klucel (hydroxypropylcellulose) (HPC)): 90 % of control | T/C (dose: 12.5 mg/kg/injection, schedule: Q04DX003 (ip), vehicle: Klucel (hydroxypropylcellulose) (HPC)): 70 % of control | T/C [15]: 94 % of control

N=C(N)SCc1c2ccccc2c(CSC(=N)N)c2ccccc12
T/C (dose: 50.0 mg/kg/injection, schedule: Q04DX003 (ip), vehicle: suspension in saline): 88 % of control

CCN(CC)CCCC(C)Nc1c2ccc(Cl)cc2nc2ccc(OC)cc12 (stereo unspecified)
T/C [17]: 89 % of control | T/C [2]: 91 % of control

COC(OC(CO)C(O)S(=O)(=O)O)C(O)S(=O)(=O)O (stereo unspecified)
T/C [12]: 54 % of control | T/C [13]: 80 % of control

O=C(O)CP(=O)(O)O
T/C (dose: 800.0 mg/kg/injection, schedule: Q04DX003 (ip), vehicle: saline): 94 % of control | T/C (dose: 1600.0 mg/kg/injection, schedule: Q04DX003 (ip), vehicle: saline): 66 % of control

Cc1c(N)nc([C@H](CC(N)=O)NC[C@H](N)C(N)=O)nc1C(=O)N[C@H](C(=O)N[C@H](C)[C@@H](O)CC(=O)N[C@H](C(=O)NC(O[C@@H]1O[C@@H](C)[C@@H](N)[C@@H](O)[C@H]1O)C(O)c1nc(-c2nc(C(=O)NCCCCN)cs2)cs1)[C@@H](C)O)[C@@H](O[C@@H]1O[C@@H](CO)[C@@H](O)[C@H](O)[C@@H]1O[C@H]1O[C@H](CO)[C@@H](O)[C@H](OC(N)=O)[C@@H]1O)c1c[nH]cn1 (stereo partly specified)
T/C [6]: 47 % of control | T/C [8]: 27 % of control | T/C [10]: 7 % of control

CC(=O)OCC1OC(n2cc(CBr)nn2)C(OC(C)=O)C(OC(C)=O)C1OC(C)=O (stereo unspecified)
T/C [17]: 78 % of control | T/C (dose: 100.0 mg/kg/injection, schedule: Q04DX003 (ip), vehicle: saline with Tween-80): 92 % of control | T/C [2]: 69 % of control

COc1cc([C@@H]2c3cc4c(c(O)c3C[C@H]3COC(=O)[C@@H]32)OCO4)cc(OC)c1OC
T/C (dose: 2.5 mg/kg/injection, schedule: Q04DX003 (ip), vehicle: saline): 83 % of control | T/C (dose: 5.0 mg/kg/injection, schedule: Q04DX003 (ip), vehicle: saline): 114 % of control | T/C (dose: 10.0 mg/kg/injection, schedule: Q04DX003 (ip), vehicle: saline): 52 % of control

O=CC(S)CO (stereo unspecified)
T/C [11]: 119 % of control | T/C [12]: 96 % of control | T/C [13]: 107 % of control
